Assay results as given in patent US11453632B2, “1-phenyl-2-phenylethane derivative” (KAO CORPORATION, priority 2018, dated 2022).

What was measured:
[1] = system: prostate of testosterone-induced prostatic hyperplasia rat; assay: Efficacy on prostate in testosterone-induced prostatic hyperplasia rat; assay type: in vivo; settings: testosterone 3 mg/kg/day plus test substance 0.1 or 1 mg/kg body weight/day, subcutaneous osmotic pump, 28 days, vs testosterone alone
Text: 12-week-old male Slc:SD (SPF) rats were obtained from Japan SLC, Inc. An acclimatization period was established for 1 week after receipt. During the acclimatization period, the rats were allowed to freely ingest a powder diet (AIN-93G).
2) Implantation of Osmotic Pump
After body weight measurement, back hair was shaved under isoflurane (AbbVie GK) inhalation anesthesia, and carprofen was subcutaneously administered to the rats. Then, an incision of approximately 1 cm at the maximum was made on the cranial side in the back. An osmotic minipump Alzet (Muromachi Kikai Co., Ltd.) containing testosterone and compound 17-F or finasteride (Sigma-Aldrich Co. LLC) was subcutaneously implanted. From this osmotic pump, testosterone (3 mg/kg body weight/day) (Sigma-Aldrich Co. LLC) and compound 17-F (0.1 mg/body weight/day or 1 mg/kg body weight/day) or finasteride (0.1 mg/kg body weight/day or 1 mg/kg body weight/day) were continuously administered for 28 days. Since the implantation of the osmotic pump, the rats were allowed to freely ingest customized feed AIN-93G (Oriental Yeast Co., Ltd.) free from components derived from soybeans.
3) Photographing of Skin and Harvesting of Prostate
After a lapse of 28 days, body weights were measured, and subsequently, the rats were euthanized by blood letting under isoflurane anesthesia. Back hair was shaved, followed by photographing. Then, the abdominal cavity was opened to harvest the prostate on the ventral side. Wet weights were measured.

[2] = system: uterus of ovariectomized rat; assay: Uterus weight in ovariectomized (OVX) rat; assay type: in vivo
Experimental: 8-week-old female Crl:CD (SD) rats were obtained from Charles River Laboratories Japan, Inc. and individually identified by the ear punching method on the receipt date. Then, an acclimatization period was established for 1 week. The animals were raised in a rearing room under a set environment involving a temperature of 22±3° C., a humidity of 50±20%, air ventilation from 13 to 17 times/hour, and a lighting time from 8:00 to 20:00. During the acclimatization period, the rats were allowed to freely ingest solid feed CRF-1 (Oriental Yeast Co., Ltd.). Since the feeding with CRF-1, the rats were allowed to freely ingest customized feed AIN-93G (Oriental Yeast Co., Ltd.) free from components derived from soybeans.
On the end date of acclimatization and the following day, the flank cavity was opened under isoflurane anesthesia to harvest the right and left ovaries including fallopian tubes. Other non-OVX rats were subjected to only opening and suture (sham surgery). Immediately thereafter, an antibiotic was subcutaneously administered at a dose of 100 μl/animal. After the surgery, the sham surgery or OVX animals were given customized feed and raised for approximately 1 week.
From 1.5 hours before a shift from the light phase to the dark phase (18:30), a negative solvent (DMSO) or a test substance was subcutaneously administered at a dose of 0.5 ml/kg to the back of the neck according to Table 3 described below using a syringe and an injection needle.
After the completion of all procedures of measurement and analysis, the rats were euthanized by blood letting under isoflurane anesthesia, and the uterus was harvested. Wet weights were measured.
Skin temperatures differed largely among individuals, and the Smirnov-Grubbs test was conducted in order to exclude outliers beforehand. Results of measuring tail skin temperatures and results of measuring uterus weights were statistically analyzed by testing using the Dunnett's test.

## Oc1ccc(CC(C=C(F)F)c2ccc(O)cc2F)c(F)c1 (stereo not shown) [Compound 17-F, 4,4′-(4,4-difluorobut-3-ene-1,2-diyl)bis(3-fluorophenol)]
[1]
  size of the prostate (visual, FIG. 1): Concentration-dependent decrease in the size of the prostate
  weight of the prostate corrected with the body weight (FIG. 2): decreased to almost the same level as in the DMSO administration group
[2]; 4 μg/kg/day subcutaneous, vs negative solvent group
  uterus wet weight (FIG. 6): no change in uterus weight was confirmed
[2]; increased dose of compound 17-F (40, 400 μg/kg/day) subcutaneous
  uterus wet weight (FIG. 6): elevated in a concentration-dependent manner
